Assay results from patent US5866576A, “Epoxide-containing compounds” (Cell Therapeutics, Inc., priority 1997, dated 1999).

How the values were obtained:
thymocytes = experiment: murine thymocyte proliferation assay co-stimulated by ConA and IL-2 (FIGS. 7A-7E); format: cell-based, Balb/C mice; conditions: Mus musculus
Balb/3T3 cells [1] = experiment: Balb/3T3 cytotoxicity assay (BCECF-AM); format: cell-based; conditions: FIGS. 8C, 8D
Description: In conjuction with the Balb/3T3 proliferation assay conducted above, a Balb/3T3 cytotoxicity assay was conducted to determine that the inhibition on proliferation was not due to cytotoxic effects. This assay is similar to the assay decribed above except tritiated thymidine was not added and after 18-24 hours incubation with PDGF/BB and a lOuM solution of 2,7-bis-(2-carboxyethyl)-5(and-6)carboxyflouresceinacetoxymethyl ester (BCECF-AM) was added for 30 minutes at 37° C. (BCECF is a compound that when cleaved by esterases, yields a fluorescent product in viable cells only, therefore providing a measure of viable cell numbers). Following sufficient incubation, BCECF is replaced with PBS and the plate examined with flourescence in a Millipore "cytofluor." The data is compiled and plotted.

[2] = tested on: normal human bone marrow stromal cells (MSC); experiment: human bone marrow stromal cell (MSC) proliferation in response to PDGF BB and IL-1α; format: cell-based; conditions: Table III, PDGF BB 50 ng/ml and IL-1α 10 ng/ml
Outline: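 Serum-starved (20–24 h) normal human bone marrow stromal cells preincubated 1 h with compound, then stimulated with PDGF BB (50 ng/ml) and IL-1α (10 ng/ml) plus 3H-thymidine for 24 h. Proliferation read as 3H-thymidine incorporation into DNA; IC50 derived per compound.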

Balb/3T3 cells [3] = experiment: PDGF-stimulated Balb/3T3 cell proliferation; format: cell-based; conditions: FIGS. 8A (1409), 8B (1560); PDGF/BB
Description: Balb/3T3 cells respond vigorously to PDGF stimulation, and are useful in vitro models for further study of PDGF-induced proliferation. Disregulated PDGF-proliferative response has been linked to a variety of diseases, including, e.g., restenosis, atherosclerosis, fibrosis, and tumor cell angiogenesis.
Balb/3T3 cells were maintained in exponential growth. The cells were removed from a flask with EDTA and plated into 96 well plates at 3000 cells/well. After 48 hours, the media was removed, the cells washed once with PBS and serum free media and the cultures allowed to rest for a 24 hour period. Inventive compounds were added to the wells containing media and Balb/3T3 cells one hour prior to incubation with PDGF/BB, added at constant 10 μM concentrations along with 1 μ Ci 3-H-thymidine dye. Cells were subsequently incubated for 18-24 hours, harvested, and incorporated thymidine assessed on a Packard Topcount to determine degree of cell proliferation. Data obtained in this assay was used to determine experimental 50% inhibition concentrations for the inventive compounds tested.

Cn1cnc2c1c(=O)n(CCCCCCCC1CO1)c(=O)n2C (centres unmarked) [Compound 1560, 1-(8,9-Oxidononyl)-3,7-dimethylxanthine]
IC50 (thymocytes; FIG. 7C): 22 µM
IC50 (thymocytes; FIGS. 7D and 7E): 14 µM
cytotoxic effects (Balb/3T3 cells [1]): without exhibiting cytotoxic effects
IC50 [2]: 6.6 µM
inhibition of Balb/3T3 proliferation (Balb/3T3 cells [3]): inhibit Balb/3T3 proliferation
